Entries after “also recorded” stand apart in the source; their conditions may differ.
How the values were obtained:
[1] = target: T1, recombinant tau oligomers (TauO) (Homo sapiens, UniProt P10636); assay: Direct ELISA of recombinant tau oligomers with and without compounds; assay type: biochemical; details: increased concentration of curcumin
T1 construct: made in house
Description: ELISA assay was conducted as previously described (Lasagna-Reeves, Castillo-Carranza et al. 2010). […] After washing three times with TBS-T, plates were blocked for 1 hour at 37° C. with 120 μl of 10% non-fat milk in TBS-T. Plates were then washed three times with TBS-T, before probing with 100 μL of primary antibodies for 1 hour at 37° C., T22 (diluted 1:250 in 5% non-fat milk in TBS-T) and Tau 5 (diluted 1:10000 in 5% non-fat milk in TBS-T), respectively . Plates were then washed three times with TBS-T, and probed with 100 μL of horseradish peroxidase-conjugated anti-rabbit or anti-mouse IgG (Promega, Madison, WI) (diluted 1:10000 in 5% non-fat milk in TBS-T). After 1 hour of incubation at 37° C., plates were washed three times with TBS-T and developed with 3, 3, 5, 5-tetramethylbenzidine (TMB-lcomponent substrate, KPL, Gaithersburg, MD). The reaction was stopped by using 100 μL 1M HCl and samples were read at 450 nm using POLARstar OMEGA plate reader. All measurements were performed in triplicate
Compounds were dissolved in ETOH 75%/DMSO (5:1) at a final concentration of 5 mM and diluted in 1× PBS or ddH2O for incubation or toxicity assay (final concentration 5 μM). […]
ELISA assay was conducted as previously described (Lasagna-Reeves, Castillo-Carranza et al. 2010). […] The reaction was stopped using 100 μl of 1M HCl and absorbance was read at 450 nm using POLARstar OMEGA plate reader. […]

[2] = test system: SH-SY5Y human neuroblastoma cells; assay: MTT viability of SH-SY5Y cells exposed to TauO pre-incubated with compound; assay type: cell-based; details: 2 μM TauO; curcumin final concentration 10 μM
Description: Human neuroblastoma SH-SY5Y cells were maintained in Dulbecco's modified Eagle's medium (DMEM) and grown to confluence in 96-well plates. […] Cells viability was corrected by the vehicle background. All measurements were performed in triplicate. The cytotoxic effect was determined using 3-(4,5-dimethylthiazol-2-yl)-2,5-diphenyltetrazolium bromide (MTT) assay for assessing cell viability following manufacturers' instructions. Optical density (OD) was measured at 490 nm with POLARstar OMEGA plate reader (BMG Labtechnologies). Cell viability was calculated as the percentage of the OD value of treated cells compared with untreated controls, according to the following equation: Viability=(OD SAMPLE/OD CONTROL)×100. […]
Human neuroblastoma SH-SY5Y cells were maintained in Dulbecco's modified Eagle's medium (DMEM) and grown to confluence in 96-well plates. […] The cytotoxic effect was determined using 3-(4,5-dimethylthiazol-2-yl)-2,5-diphenyltetrazolium bromide (MTT) assay for assessing cell viability following manufacturer's instructions. Optical density (OD) was measured at 490 nm with POLARstar OMEGA plate reader (BMG Labtechnologies). Cell viability was calculated as the percentage of the OD value of treated cells compared with untreated controls, according to the following equation: Viability=(OD SAMPLE/OD CONTROL)×100. […]

T1 sequence (P10636 1-441 isoform P10636-8): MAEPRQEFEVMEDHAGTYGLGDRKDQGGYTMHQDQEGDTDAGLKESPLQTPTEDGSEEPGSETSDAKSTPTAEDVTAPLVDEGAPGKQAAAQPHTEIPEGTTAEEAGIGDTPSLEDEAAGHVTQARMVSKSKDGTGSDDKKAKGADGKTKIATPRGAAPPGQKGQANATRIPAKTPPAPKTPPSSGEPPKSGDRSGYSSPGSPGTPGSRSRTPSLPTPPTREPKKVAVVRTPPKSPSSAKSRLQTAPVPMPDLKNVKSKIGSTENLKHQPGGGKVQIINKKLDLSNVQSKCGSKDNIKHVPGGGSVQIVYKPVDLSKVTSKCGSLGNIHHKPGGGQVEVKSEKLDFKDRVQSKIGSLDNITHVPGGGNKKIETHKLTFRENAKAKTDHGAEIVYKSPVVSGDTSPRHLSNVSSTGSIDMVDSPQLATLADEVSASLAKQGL

Structure (SMILES): COc1cc(/C=C/C(=O)CC(=O)/C=C/c2ccc(O)c(OC)c2)ccc1O [curcumin]
- tau oligomer level, T22 immunoreactivity, direct ELISA [1]: significant decrease in T22 immunoreactivity; also recorded: significant decrease in oligomers
- viability of SH-SY5Y cells exposed to TauO pre-incubated with curcumin [2]: significantly higher cells viability when compared to TauO alone; also recorded: rescued cells from TauO-induced toxicity

Source: patent publication US12391657B2, “Small molecules that bind and/or modulate differentforms of tau oligomers” (The Board of Regents of the University of Texas System, priority 2019, dated 2025)
